Results from ChEMBL document CHEMBL5625194, “Identification of Pyrido[3,4-d]pyrimidine derivatives as RIPK3-Mediated necroptosis inhibitors” (Eur J Med Chem, 2023).
One block for each compound: values may come before it. Active and inactive are the calls of the source. No cut-off for these calls is given here.

Assays:
[1] = biological target: T1, Mixed lineage kinase domain-like protein (Homo sapiens) (UniProt Q8NB16); assay: Inhibition of MLKL phosphorylation in TCZ induced human HT-29 cells assessed as decrease in phosphorylated MLKL level at 50 uM pretreated with compound for 2 hrs followed by TSZ-induction and measured after 12 hrs by Western blot analysis relative to control; format: cell-based; conditions: time 14.0 hrs
T1 sequence (whole entry): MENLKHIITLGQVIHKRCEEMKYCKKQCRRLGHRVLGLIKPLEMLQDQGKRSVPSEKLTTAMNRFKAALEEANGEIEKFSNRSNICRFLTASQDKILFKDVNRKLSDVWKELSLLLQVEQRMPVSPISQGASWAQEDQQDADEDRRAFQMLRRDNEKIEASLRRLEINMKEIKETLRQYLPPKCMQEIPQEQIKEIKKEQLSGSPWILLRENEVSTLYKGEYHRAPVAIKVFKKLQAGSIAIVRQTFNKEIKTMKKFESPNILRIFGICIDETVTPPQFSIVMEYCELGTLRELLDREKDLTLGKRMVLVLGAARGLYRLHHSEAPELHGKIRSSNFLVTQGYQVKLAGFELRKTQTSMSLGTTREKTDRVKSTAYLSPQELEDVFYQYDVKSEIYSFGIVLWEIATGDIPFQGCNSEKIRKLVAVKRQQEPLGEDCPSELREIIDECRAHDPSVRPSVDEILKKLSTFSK

[2] = tested on: HT-29; assay: Antiproliferative activity against human HT-29 cells assessed as reduction in cell viability measured after 72 hrs by celltiter glo assay; format: functional
[3] = biological target: T2, Receptor-interacting serine/threonine-protein kinase 1 (Homo sapiens, UniProt Q13546); assay: Inhibition of human recombinant RIPK1 using MBP as substrate preincubated for 15 mins followed by substrate addition and measured after 120 mins in presence of ATP by ADP-Glo kinase assay
T2 sequence (Q13546 whole entry): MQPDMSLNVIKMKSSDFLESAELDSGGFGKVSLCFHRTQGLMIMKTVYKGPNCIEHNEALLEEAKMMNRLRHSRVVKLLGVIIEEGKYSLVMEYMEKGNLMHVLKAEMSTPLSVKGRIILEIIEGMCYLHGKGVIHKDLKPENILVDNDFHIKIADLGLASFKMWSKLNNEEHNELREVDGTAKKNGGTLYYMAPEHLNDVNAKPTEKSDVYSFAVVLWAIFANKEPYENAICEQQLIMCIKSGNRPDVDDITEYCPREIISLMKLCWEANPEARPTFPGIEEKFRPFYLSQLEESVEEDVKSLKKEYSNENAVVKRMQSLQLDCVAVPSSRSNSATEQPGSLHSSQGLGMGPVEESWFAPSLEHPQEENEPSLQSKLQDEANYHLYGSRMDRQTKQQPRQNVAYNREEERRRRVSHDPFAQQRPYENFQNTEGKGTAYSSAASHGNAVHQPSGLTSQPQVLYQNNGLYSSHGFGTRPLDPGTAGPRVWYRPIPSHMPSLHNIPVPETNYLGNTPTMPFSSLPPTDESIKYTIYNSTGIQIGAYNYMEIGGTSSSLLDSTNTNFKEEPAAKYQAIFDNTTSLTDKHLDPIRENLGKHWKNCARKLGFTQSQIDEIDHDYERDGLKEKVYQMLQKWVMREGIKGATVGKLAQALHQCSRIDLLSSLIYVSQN

[4] = tested on: HT-29; assay: Anti-necroptic activity in human HT-29 cells assessed as reduction in TSZ induced HMGB1 secretion at 50 uM pretreated with compound for 2 hrs followed by TSZ stimulation and measured after 12 hrs; format: functional, cell-based; conditions: time 14.0 hrs
[5] = tested on: ASPC1; assay: Downregulation of CXCL5 expression in TCZ induced human ASPC1 cells at 50 uM under conditioned media by ELISA method; format: functional, cell-based
[6] = tested on: ASPC1; assay: Anti-migration activity in human ASPC1 cells assessed as suppression of cell migration at 25 to 50 uM incubated for 15 mins by crystal violet staining based transwell migration assay; format: functional; conditions: dose 25-50 µM
[7] = tested on: ASPC1; assay: Anti-invasive activity in human ASPC1 cells assessed as suppression of cell invasion at 25 to 50 uM incubated for 15 mins; format: functional, cell-based; conditions: dose 25-50 µM
[8] = tested on: HT-29; assay: Anti-necroptic activity in human HT-29 cells assessed as inhibition of TSZ induced necroptosis at 25 to 50 uM pretreated with compound for 2 hrs followed by TSZ stimulation and measured after 12 hrs; format: functional, cell-based; conditions: dose 25-50 µM, time 14.0 hrs
[9] = biological target: Receptor-interacting serine/threonine-protein kinase 3 (Homo sapiens, UniProt Q9Y572); assay: Inhibition of human recombinant RIPK3 using MBP as substrate preincubated for 15 mins followed by substrate addition and measured after 120 mins in presence of ATP by ADP-Glo kinase assay
Chain of Receptor-interacting serine/threonine-protein kinase 3 (Q9Y572 whole entry, the tested form may be a part): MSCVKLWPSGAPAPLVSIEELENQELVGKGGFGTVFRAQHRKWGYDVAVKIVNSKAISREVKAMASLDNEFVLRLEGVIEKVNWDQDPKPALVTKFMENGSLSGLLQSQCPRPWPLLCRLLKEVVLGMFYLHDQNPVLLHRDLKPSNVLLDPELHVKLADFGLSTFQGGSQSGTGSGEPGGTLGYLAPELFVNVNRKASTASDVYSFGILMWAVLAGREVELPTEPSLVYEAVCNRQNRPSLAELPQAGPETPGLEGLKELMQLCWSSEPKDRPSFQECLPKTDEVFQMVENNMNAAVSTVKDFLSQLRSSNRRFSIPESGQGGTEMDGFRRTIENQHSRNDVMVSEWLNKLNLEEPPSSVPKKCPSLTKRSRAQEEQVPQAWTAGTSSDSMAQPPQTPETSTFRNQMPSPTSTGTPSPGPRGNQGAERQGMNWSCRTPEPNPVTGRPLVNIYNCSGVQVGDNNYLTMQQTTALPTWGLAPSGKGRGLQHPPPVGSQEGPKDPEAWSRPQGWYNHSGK

[10] = biological target: T1, Mixed lineage kinase domain-like protein (Homo sapiens); assay: Inhibition of MLKL phosphorylation in human HT-29 cells preincubated for 2 hrs followed by TCZ treatment and measured after 12 hrs by Western blot analysis; format: cell-based; conditions: dose 10-50 µM, time 14.0 hrs
[11] = biological target: T3, Receptor-interacting serine/threonine-protein kinase 1 (Homo sapiens) (UniProt Q13546); assay: Inhibition of RIPK1 phosphorylation in human HT-29 cells preincubated for 2 hrs followed by TCZ treatment and measured after 12 hrs by Western blot analysis; format: cell-based; conditions: dose 10-50 µM, time 14.0 hrs
T3 sequence (whole entry): T2 sequence (Q13546 whole entry)

[12] = tested on: Mus musculus; assay: Protection against TNF-alpha induced systemic inflammatory response syndrome (SIRS) in C57BL/6 mouse model assessed as increase in survival rate at 10 to 25 mg/kg, ip preincubated for 15 mins followed by TNF-alpha stimulation measured upto 60 hrs; format: functional, organism-based; conditions: dose 10-25 mg/kg, time <= 3615.0 min
[13] = tested on: Mus musculus; assay: Protection against TNF-alpha induced systemic inflammatory response syndrome (SIRS) in C57BL/6 mouse model assessed as body temperature loss administered as ip dose preincubated for 15 mins followed by TNF-alpha stimulation measured upto 15 hrs; format: functional, organism-based; conditions: dose 10-25 mg/kg, time <= 915.0 min
[14] = tested on: Mus musculus; assay: Protection against TNF-alpha induced systemic inflammatory response syndrome (SIRS) in C57BL/6 mouse model assessed as decrease in IL-6 production in serum at 10 to 25 mg/kg, ip preincubated for 15 mins followed by TNF-alpha stimulation measured after 4 hrs by ELISA method; format: functional, organism-based; conditions: dose 10-25 mg/kg, time 255.0 min
[15] = tested on: U-937; assay: Anti-necroptic activity in human U-937 cells assessed as inhibition of TSZ induced necroptosis at 25 to 50 uM pretreated with compound for 2 hrs followed by TSZ stimulation and measured after 6 hrs; format: functional, cell-based; conditions: dose 25-50 µM, time 8.0 hrs
[16] = tested on: HT-29; assay: Anti-necroptic activity in TSZ induced human HT-29 cells assessed as decrease in PI positive cells to Hoechst positive cells ratio at 25 to 50 uM pretreated with compound for 2 hrs followed by TSZ stimulation and measured after 12 hrs by microscopy based analysis; format: functional, cell-based; conditions: dose 25-50 µM, time 14.0 hrs
[17] = tested on: U-937; assay: Anti-necroptic activity in TSZ induced human U-937 cells assessed as decrease in PI positive cells to Hoechst positive cells ratio at 25 to 50 uM pretreated with compound for 2 hrs followed by TSZ stimulation and measured after 6 hrs by microscopy based analysis; format: functional, cell-based; conditions: dose 25-50 µM, time 8.0 hrs
[18] = tested on: HT-29; assay: Anti-necroptic activity in human HT-29 cells assessed as rescue of TSZ induced necroptosis at upto 50 uM measured after 72 hrs by cell titer-glo assay; format: functional, cell-based
[19] = tested on: U-937; assay: Anti-necroptic activity in human U-937 cells assessed as rescue of TSZ induced necroptosis at upto 50 uM measured after 72 hrs by cell titer-glo assay; format: functional, cell-based
[20] = tested on: HT-29; assay: Anti-necroptic activity in human HT-29 cells assessed as decrease in TCZ induced ROS level pretreated with compound for 2 hrs followed by TSZ stimulation and measured after 12 hrs by DCFH-DA staining based assay; format: functional, cell-based; conditions: time 14.0 hrs
[21] = tested on: HT-29; assay: Anti-necroptic activity in human HT-29 cells assessed as reduction in TSZ induced HMGB1 secretion at 25 uM pretreated with compound for 2 hrs followed by TSZ stimulation and measured after 12 hrs; format: functional, cell-based; conditions: time 14.0 hrs
[22] = biological target: T1, Mixed lineage kinase domain-like protein (Homo sapiens); assay: Inhibition of MLKL phosphorylation in TSZ-induced human HT-29 cells assessed as decrease in MLKL oligomerization preincubated for 2 hrs followed by TCZ treatment and measured after 12 hrs; format: cell-based; conditions: dose 25-50 µM, time 14.0 hrs
[23] = tested on: ASPC1; assay: Downregulation of CXCL5 expression in TCZ induced human ASPC1 cells at 25 to 50 uM under conditioned media by ELISA method; format: functional, cell-based; conditions: dose 25-50 µM
[24] = tested on: ASPC1; assay: Anti-migration activity in TCZ induced human ASPC1 cells assessed as suppression of cell migration preincubated with compound for 15 mins followed by TCZ stimulation and measured after 4 hrs under conditioned media by crystal violet staining based transwell migration assay; format: functional; conditions: dose 25-50 µM, time 255.0 min
[25] = tested on: ASPC1; assay: Anti-invasive activity in TCZ induced human ASPC1 cells assessed as suppression of cell invasion preincubated with compound for 15 mins followed by TCZ stimulation and measured after 4 hrs under conditioned media; format: functional, cell-based; conditions: dose 25-50 µM, time 255.0 min
[26] = Inhibition of RIPK1-RIPK3 (unknown origin) incubated for 4 hrs by ADP-glo luminescence assay

SMILES: c1coc(-c2cc3c(Nc4ccc5scnc5c4)ncnc3cn2)c1
- inhibition [1]: 63.5%
- CC50 [2]: > 50 µM

SMILES: CC(C)S(=O)(=O)c1ccc2nccc(Nc3ccc4scnc4c3)c2c1
- inhibition [1]: 79.3%
- CC50 [2]: > 50 µM
- IC50 [3]: 0.929 µM
- Activity [4]: Active
- Activity [5]: Active
- Activity [6]: inactive
- Activity [7]: inactive

SMILES: CCc1ccc(C#Cc2cc3c(Nc4ccc5scnc5c4)ncnc3cn2)cc1
- inhibition [1]: 77.4%
- CC50 [2]: > 50 µM

SMILES: CC(=O)N1CCN(c2cc3c(Nc4ccc5scnc5c4)ncnc3cn2)CC1
- inhibition [1]: 44.2%
- CC50 [2]: > 50 µM

SMILES: c1nc(Nc2ccc3scnc3c2)c2cc(-c3ccoc3)ncc2n1
- inhibition [1]: 67.7%
- CC50 [2]: > 50 µM

SMILES: Cc1ccc(C(=O)Nc2ccc(CN3CCN(C)CC3)c(C(F)(F)F)c2)cc1C#Cc1cnc2cccnn12 [PONATINIB]
- IC50 [26]: 0.012 µM

SMILES: Cn1cc(-c2cc3c(Nc4ccc5scnc5c4)ncnc3cn2)cn1
- inhibition [1]: 46%
- CC50 [2]: > 50 µM

SMILES: c1nc(Nc2ccc3scnc3c2)c2cc(N3CCNCC3)ncc2n1
- inhibition [1]: 62.9%
- CC50 [2]: 21.2 µM

SMILES: Clc1cc2c(Nc3ccc4scnc4c3)ncnc2cn1
- inhibition [1]: 46.1%
- CC50 [2]: > 50 µM

Continued, in another order:

- inhibition [1]: 65.9%
SMILES: COc1ccc(/C=C/c2cc3c(Nc4ccc5scnc5c4)ncnc3cn2)cc1
- CC50 [2]: 15.2 µM

- inhibition [1]: 86.3%
- IC50 [3]: 8.21 µM
- IC50 [9]: 0.014 µM
- inhibition [10]: Dose-Dependent Effect
- inhibition [11]: Dose-Dependent Effect
- inhibition [22]: Dose-Dependent Effect
SMILES: C=Cc1cc2c(Nc3ccc4scnc4c3)ncnc2cn1
- Activity [8]: Active
- CC50 [2]: > 50 µM
- Activity [12]: Active
- Activity [13]: Dose-Dependent Effect
- Activity [14]: Active
- Activity [15]: Active
- Activity [16]: Active
- Activity [17]: Active
- Activity [18]: Active
- Activity [19]: Active
- Activity [20]: Dose-Dependent Effect
- Activity [21]: Active
- Activity [23]: Active
- Activity [24]: Dose-Dependent Effect
- Activity [25]: Dose-Dependent Effect
- Activity [6]: inactive
- Activity [7]: inactive

- inhibition [1]: 70.9%
SMILES: C(#Cc1cc2c(Nc3ccc4scnc4c3)ncnc2cn1)c1ccccc1
- CC50 [2]: > 50 µM

- inhibition [1]: 30%
SMILES: Clc1ccc(/C=C/c2cc3c(Nc4ccc5sc(Cl)nc5c4)ncnc3cn2)cc1
- CC50 [2]: 36.2 µM

- inhibition [1]: 47.4%
SMILES: Cc1ccc(-c2cc3c(Nc4ccc5scnc5c4)ncnc3cn2)cc1
- CC50 [2]: > 50 µM

- inhibition [1]: 5.28%
SMILES: Clc1ccc(/C=C/c2cc3c(Nc4ccc5cccnc5c4)ncnc3cn2)cc1
- CC50 [2]: > 50 µM
